Where two headings read alike, the source gives them in different places. Square brackets hold non-standard residues; d marks the D form. Peptide text beside a SMILES is read from it. * marks the point of attachment. Pip(4-aza) = O=C(O)[C@@H]1CNCCN1; dNMeF = CN[C@H](Cc1ccccc1)C(=O)O; dPip = O=C(O)[C@H]1CCCCN1; Orn = NCCC[C@H](N)C(=O)O; Cbz = O=C(OCc1ccccc1)* Bounds are passed on as bounds.

For experiment [1], the target named is T1, uterine OT receptors (Rattus norvegicus, UniProt P70536).
T1 construct: from tissue; host or cells: uterus of DES-treated rats, crude membranes
T1 sequence (P70536 1-388): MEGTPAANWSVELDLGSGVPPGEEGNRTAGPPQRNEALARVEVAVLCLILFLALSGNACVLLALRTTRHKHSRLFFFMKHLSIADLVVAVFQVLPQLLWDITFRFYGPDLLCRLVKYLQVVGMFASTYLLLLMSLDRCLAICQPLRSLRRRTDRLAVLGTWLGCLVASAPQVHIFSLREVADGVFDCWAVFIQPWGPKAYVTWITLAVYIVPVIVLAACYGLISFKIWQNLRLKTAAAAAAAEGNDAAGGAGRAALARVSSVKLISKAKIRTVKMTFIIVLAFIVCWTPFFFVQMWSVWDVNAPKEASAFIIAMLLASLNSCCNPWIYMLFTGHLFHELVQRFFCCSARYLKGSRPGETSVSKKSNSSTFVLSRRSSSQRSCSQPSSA
Put plainly: [^3 H]OT binding to uterine OT receptors, crude membrane preparation of uteri from DES-treated rats. How it is done: Competition studies were conducted at equilibrium (60 minutes; 22° C.) using 1 nM [^3 H]OT in the following assay buffer: 50 mM Tris-HCl, 5 mM MgCl2, and 0.1% BSA, pH 7.4.

Experiment [2] has as its target T2, AVP-V2 sites (Rattus norvegicus, UniProt Q00788).
T2 construct: male rat liver (AVP-V1 sites) or kidney medulla (AVP-V2 sites); from tissue; host or cells: male rat kidney medulla, crude membranes
The experiment in a line: [^3 H]AVP binding to crude membrane preparation of male rat kidney medulla (AVP-V2 sites). How it is done:
(§1) Nonspecific binding (5-10% of the total binding) was determined using 10 μM unlabeled AVP, and the binding reaction was terminated by filtration as described above for the [^3 H]OT binding assay.

The target in experiment [3] is T3, AVP-V1 sites (Rattus norvegicus, UniProt P30560).
T3 construct: crude membrane preparation of male rat liver (AVP-V1 sites); from tissue; host or cells: male rat liver, crude membranes
T3 sequence (P30560 whole entry): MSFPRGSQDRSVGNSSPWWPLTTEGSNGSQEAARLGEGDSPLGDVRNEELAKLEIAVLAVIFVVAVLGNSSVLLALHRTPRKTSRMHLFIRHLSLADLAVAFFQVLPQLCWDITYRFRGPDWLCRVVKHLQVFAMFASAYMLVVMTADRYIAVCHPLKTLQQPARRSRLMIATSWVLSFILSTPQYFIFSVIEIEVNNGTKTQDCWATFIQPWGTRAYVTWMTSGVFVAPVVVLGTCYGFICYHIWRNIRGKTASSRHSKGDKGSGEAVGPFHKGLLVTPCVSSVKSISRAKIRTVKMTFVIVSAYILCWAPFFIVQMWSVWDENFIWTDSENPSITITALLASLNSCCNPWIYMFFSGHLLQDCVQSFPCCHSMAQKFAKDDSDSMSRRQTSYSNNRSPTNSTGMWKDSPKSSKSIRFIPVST
Put plainly: [^3 H]AVP binding to crude membrane preparation of male rat liver (AVP-V1 sites). Particulars: Receptor Binding Results IC50 (nM) [^3 H]-AVP-V1. How it is done: as §1

Setting [4] is: rat uterus membranes, 1 nM [^3 H]OT, read-out: Receptor Binding Results IC50 (nM) [^3 H]OT.
The mark [5] stands for this setting: rat kidney medulla membranes, 2 nM [^3 H]AVP, read-out: Receptor Binding Results IC50 (nM) [^3 H]-AVP-V2.

T2 sequence (Q00788 whole entry): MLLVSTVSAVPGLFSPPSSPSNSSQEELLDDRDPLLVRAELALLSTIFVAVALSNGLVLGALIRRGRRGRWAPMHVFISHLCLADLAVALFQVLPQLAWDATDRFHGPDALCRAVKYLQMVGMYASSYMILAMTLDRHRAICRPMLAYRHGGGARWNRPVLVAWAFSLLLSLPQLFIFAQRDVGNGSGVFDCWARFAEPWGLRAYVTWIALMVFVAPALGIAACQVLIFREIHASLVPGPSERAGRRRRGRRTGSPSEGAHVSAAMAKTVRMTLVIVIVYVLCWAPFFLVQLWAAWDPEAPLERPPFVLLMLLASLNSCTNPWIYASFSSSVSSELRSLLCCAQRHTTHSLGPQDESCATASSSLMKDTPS

Consider `CC[C@H](C)[C@@H]1NC(=O)[C@@H](Cc2c[nH]c3ccccc23)NC(=O)[C@@H]2CCCN2C(=O)[C@@H](Cc2ccccc2)N(C)C(=O)[C@@H]2CNCCN2C(=O)[C@H]2CCCCN2C1=O` [Example 92, c-[D-Tryptophanyl-L-isoleucinyl-D-pipecolyl-L-piperazin-2-yl-D-(N^α -methyl)phenylalanyl-L-prolyl]] (cyclo(I[dPip][Pip(4-aza)][dNMeF]P[dW])), for which the IC50 in experiment [1] (Receptor Binding Results IC50 (nM) [^3 H]OT) was 7.7 nM; in experiment [2] (read-out: Receptor Binding Results IC50 (nM) [^3 H]-AVP-V2), 750 nM; in experiment [3] it was > 10000 nM.

`CC[C@H](C)[C@@H]1NC(=O)[C@@H](Cc2ccccc2)NC(=O)[C@@H]2CCCN2C(=O)[C@@H](Cc2ccccc2)N(C)C(=O)[C@H](CC(=O)O)NC(=O)[C@H]2CCCCN2C1=O` [Example 116, c-[D-Phenylalanyl-L-isoleucyl-D-pipecolyl-L-aspartyl-N-methyl-D-phenylalanyl-L-prolyl]] (cyclo(D[dNMeF]P[dF]I[dPip])): the IC50 in experiment [1] (setting [4]) was 1450 nM; in experiment [2] (setting [5]), > 10000 nM; in experiment [3] it was > 10000 nM.

As to `CC[C@H](C)[C@@H]1NC(=O)[C@@H](Cc2ccccc2)NC(=O)[C@@H]2CCCN2C(=O)[C@@H](Cc2ccccc2)N(C)C(=O)[C@H](Cc2cnc[nH]2)NC(=O)[C@H]2CCCCN2C1=O` [Example 13] (cyclo(H[dNMeF]P[dF]I[dPip])), the half-maximal inhibitory concentration (IC50) in experiment [1] (setting [4]) was 150 nM; in experiment [2] (Receptor Binding Results IC50 (nM) [^3 H]-AVP-V2), > 1000 nM; in experiment [3], > 1000 nM.

In the case of `CC[C@H](C)[C@@H]1NC(=O)[C@@H](Cc2c[nH]c3ccccc23)NC(=O)[C@@H]2CCCN2C(=O)[C@@H](Cc2c[nH]c3ccccc23)NC(=O)[C@H](CCCNC(=O)OCc2ccccc2)NC(=O)[C@H]2CCCCN2C1=O` [Example 36, Cyclo[D-tryptophanyl-L-isoleucyl-D-pipecolyl-L-(carbobenzyloxy)ornithinyl-D-trytophanyl-L-prolyl]] (cyclo(I[dPip][Orn](Cbz)[dW]P[dW])), the results for the IC50 in experiment [1] (setting [4]), in experiment [2] (setting [5]) and in experiment [3] were > 100 nM, 10000 nM and > 10000 nM, respectively.

The term IC50 denotes the concentration needed to halve the response being measured.
